Counter-ions that a name gives are not always drawn.
Legend:
[1] = Pharmacokinetic evaluation of compounds in mice; type: in vivo; conditions: mouse, plasma, male CD-1 mice; for clearance / bioavailability / half-life / Vd: IV 0.5 mg/kg; for bioavailability / AUC(0-t): PO 2.5 mg/kg; for half-life: read-out: T1/2 IV (converted); for Vd: read-out: Vdss; for AUC(0-t): read-out: AUC0-last PO; for Cmax: single dose, route not stated (IV 0.5 mg/kg, PO 2.5 mg/kg)
Experimental: Assay 4: Pharmacokinetic Evaluation of Compounds
Assay purpose: Pharmacokinetics of compounds in […] mice was assayed.
CD-1 mice (male, 7-9 weeks old, Shanghai Slack)
The pharmacokinetic characteristics of rodents after intravenous (IV) and oral (PO) administration of compounds were assayed by standard protocols. In the assay, mice were given a single intravenous injection and oral administration. The vehicle for intravenous injection was water. The oral vehicle was 0.5% hypromellose. Four male CD-1 mice were used in this project. Two mice were administered intravenously at a dose of 0.5 mg/kg, and plasma samples were collected at 0 h (before administration) and 0.083, 0.25, 0.5, 1, 2, 4, 8, and 24 h after administration. The other two mice were orally administered by gavage at a dose of 2.5 mg/kg, and plasma samples were collected at 0 h (before administration) and 0.25, 0.5, 1, 2, 4, 8, and 24 h after administration. Whole blood samples within 24 hours were collected, and centrifuged at 3000 g for 15 minutes. The supernatant was separated to obtain a plasma sample, and protein was precipitated by adding 4 times volume of acetonitrile solution containing internal standard. The mixture was centrifuged to obtain a supernatant, and an equal volume of water was added to the obtained supernatant. The mixture was then centrifuged to obtain a supernatant for injection. The blood drug concentration was quantitatively analyzed by LC-MS/MS analysis method, and pharmacokinetic parameters were calculated, such as peak concentration (Cmax), clearance rate (CL), half-life (T1/2), […] (Vdss), area under the drug-time curve (AUC0-last), and bioavailability (F), etc.
The assay results are shown in Table 4: The compounds of the present disclosure have good pharmacokinetic properties.

[2] = test system: Capan-2 cells; experiment: Anti-proliferative activity on Capan-2 cells; type: cell-based; conditions: Homo sapiens, Capan-2, 120 h; 5 days, CellTiter-Glo
Experimental: 2. Assay of Anti-Proliferative Activity on Capan-2 Cells
Capan-2 cells were planted in a white 96-well plate with 80 μL of cell suspension per well, which contained 5000 Capan-2 cells. The cell plate was placed in a carbon dioxide incubator for culture overnight.
The assay compound was serially diluted 3-fold with a discharge gun to the 9th concentration, that is, from 200 μM to 30 nM, in duplicate. 78 μL of medium was added to the middle plate, and then 2 μL of the serially diluted compound was transferred to each well of the middle plate according to the corresponding position. After mixing, 20 μL of the mixture was transferred to each well of the cell plate. The cell plate was incubated in a carbon dioxide incubator for 5 days. Another cell plate was prepared, and read on the day of drug addition. The signal value was used as the maximum value (The value of Max in the equation below) in data analysis. 25 μL of chemiluminescence detection reagent for cell viability was added to each well of this cell plate, and this cell plate was incubated at room temperature for 10 minutes to stabilize the luminescence signal. A multi-label analyzer was used to read results.
After the cell plate was cultured for 5 days, 25 μL of Promega CellTiter-Glo reagent was added to each well of the cell plate. The cell plate was incubated at room temperature for 10 minutes to stabilize the luminescence signal. A multi-label analyzer was used to read results.
The value of IC50 can be obtained by curve fitting. Table 2 provides the inhibitory activity of the compounds of the present disclosure on Capan-2 cell proliferation.

[3] = test system: STF reporter gene for WNT pathway (Porcupine of the Wnt signaling pathway); experiment: Inhibitory activity on Super-Top-Flash (STF) reporter gene; type: cell-based; conditions: HEK293 STF and L wnt3A cells 1:1, 24 hours, Bright-Glo
Experimental: 1. Assay of Inhibitory Activity on Super-Top-Flash (STF) Reporter Gene
HEK293 STF and L wnt3A cells were planted at a ratio of 1:1 in a white 96-well plate with 80 μL of cell suspension per well, which contained 20,000 HEK293 STF cells and 20,000 L wnt3A cells. The cell plate was placed in a carbon dioxide incubator for culture overnight.
The assay compound was serially diluted 5-fold with a discharge gun to the 8th concentration, that is, from 400 μM to 5.12 nM, in duplicate. 78 μL of medium was added to the middle plate, and then 2 μL of the serially diluted compound was transferred to each well of the middle plate according to the corresponding position. After mixing, 20 μL of the mixture was transferred to each well of the cell plate. The cell plate was placed in a carbon dioxide incubator for 24 hours.
100 μL of Promega Bright-Glo reagent was added to each well of the cell plate, and the cell plate was incubated at room temperature for 10 minutes to stabilize the luminescence signal. A multi-label analyzer was used to read results.
The original data of the multi-label analyzer was used for calculation, and the value of IC50 can be obtained by curve fitting. Table 1 provides data of the inhibitory activity of the compounds of the present disclosure on the Wnt signaling pathway.

[4] = test system: human pancreatic cancer Capan-2 xenograft tumor; experiment: In vivo drug efficacy on Capan-2 transplanted tumor in nude mice; conditions: BID, Capan-2 Xenograft model
Experimental: 3. Assay of In Vivo Drug Efficacy on Capan-2 Transplanted Tumor in Nude Mice
Capan-2 cells were cultured in McCoy's 5A medium, containing 10% fetal bovine serum FBS, in a 37° C. incubator with 5% CO2. Tumor cells were collected after passaging and growing to a suitable concentration and during the logarithmic growth phase. The cells resuspended in McCoy's 5A medium were counted and the cell suspension was adjusted to a concentration of 2×10^7/mL for inoculation.
Establishment of human pancreatic cancer Capan-2 xenograft tumor. Cells were collected and the concentration was adjusted to 2×10^7 (resuspend with McCoy's 5A medium to a cell suspension containing 50% Martigel). Under aseptic conditions, 0.1 mL of tumor cells was injected subcutaneously into the right back of the mouse, and the number of cells inoculated per mouse was 2×10^6. After the tumor was grown to a certain size, digital vernier calipers was used to measure the length (a) and width (b) of the tumor, and the tumor volume was calculated. The calculation formula of tumor volume (TV) was: TV=a×b^2/2.
Capan-2 tumor cells were inoculated. When the tumor was grown to about 150 cubic millimeters, mice were divided into groups with 6 mice in each group. The day of grouping was regarded as day 0, and the drug was administered on the day of grouping. During the assay, the animal's body weight and tumor size were measured twice a week, and the animal's clinical symptoms were observed and recorded every day. For each administration, the most recently weighed animal body weight was referred to.
The evaluation index of anti-tumor activity is relative tumor proliferation rate T/C (%), wherein T/C (%)>40% means ineffective, and T/C (%)<40% and statistically P<0.05 means effective. The calculation formula of T/C (%) is: T/C (%)=(TRTV/CRTV)×100%. TRTV is relative tumor volume of the treatment group, and CRTV is relative tumor volume of the negative control group. TGI (%)^b tumor inhibition rate=(average tumor volume or weight of negative control group-average tumor volume or weight of administration group)/average tumor volume or weight of negative control group×100%. TGI (%)^a=[(1−(average tumor volume of a certain administration group at the time of measurement-average tumor volume of the administration group at the beginning of the administration))/(average tumor volume of vehicle control group at the time of measurement-average tumor volume of the vehicle control group at the beginning of the administration)]×100%.

clearance [1] [mL/min/kg] | bioavailability [1] [%] | half-life [1] [h] | Vd [1] [L/kg] | AUC(0-t) [1] [µM·h] | Cmax [1] [nM] | IC50 [3] [nM] | Structure (SMILES) | IC50 [2] [nM] | T/C % ([4]; 5 mg/Kg, 31 days) [%] | TGI % ([4]; 5 mg/Kg, 31 days) [%] | T/C % ([4]; 2.5 mg/Kg) [%] | TGI % ([4]; 2.5 mg/Kg) [%]
5.05 | 76.3 | 2.23 | 0.633 | 16.5 | 3030 | 0.12 | Cc1cc(-c2ncc(CNc3nccn4c(-c5ccccc5)cnc34)cc2C)ccn1 [Compound 1] | 0.71 | 21.58 | 96.7 | – | –
5.75 | 98.8 | 2.5 | 0.666 | 16.2 | 2580 | 0.52 | Cc1cc(-c2ncc(CNc3nccn4c(-c5cc(F)cc(F)c5)cnc34)cc2C)ccn1 [Compound 30 (hydrochloride)] | 0.71 | 25.31 | 84.93 | 40.18 | 66.67
